# In patent US9657006B2, “Macrocyclic factor VIIa inhibitors” (BRISTOL-MYERS SQUIBB COMPANY, priority 2013, dated 2017):
# Counter-ions that a name gives are not always drawn. Like-named read-outs stand apart in the source and are kept apart here.
# What was measured:
# [1] = amide bond, 15-membered ring, HATU/NMM, DMF, 25.0 °C, 12.0 h
# [2] = from CNCc1cc(NC(=O)COCc2cccc(C(Nc3ccc4c(N(C(=O)OC(C)(C)C)C(=O)OC(C)(C)C)ncc(F)c4c3)C(=O)O)c2)ccc1S(=O)(=O)C1CC1; amide bond; 15-membered ring; BOP/DMAP/DIPEA; DCM/DMF; 20.7 mM; 25.0 °C; 13.0 h; 2 steps
# FVIIa = biological target: T1, FVIIa (Homo sapiens, UniProt P08709); assay: FVIIa-Xase Ki (37° C.); type: biochemical
# T1 construct: with about 1% of the total amount in the proteolytically active form factor VIIa
# Method: The effectiveness of compounds of the present invention as inhibitors of the coagulation Factors, VIIa, IXa, Xa, XIa, XIIa, plasma kallikrein or thrombin, tissue kallikrein and activated protein C, can be determined using a relevant purified serine protease, respectively, and an appropriate synthetic substrate. The rate of hydrolysis of the chromogenic or fluorogenic substrate by the relevant serine protease was measured both in the absence and presence of compounds of the present invention. […] A decrease in the rate of absorbance or fluorescence change in the presence of inhibitor is indicative of enzyme inhibition. Such methods are known to one skilled in the art. The results of this assay are expressed as the inhibitory constant, Ki.
# Reactions were initiated by the addition of human FX (range of concentrations). […] The residual FVIIa is sufficient, when combined with PCPS, calcium and TF to catalyze the conversion of FX to Xa, and was increased by the addition of 5 pM human FVIIa. FXa in turn hydrolyses S2765, which was monitored for 60 min at 405 nm. FXase activity was derived from the parabolic change in absorbance over time according to Equation 2: Absorbance=½ at 2+bt+c (Eq. 2) where a is proportional to the rate of FX activation≡product≡vs; b is proportional to the hydrolysis of S2765 in the absence of FXa; c is the absorbance at t=0. […]
# T1 sequence (P08709 213-466 limits assumed): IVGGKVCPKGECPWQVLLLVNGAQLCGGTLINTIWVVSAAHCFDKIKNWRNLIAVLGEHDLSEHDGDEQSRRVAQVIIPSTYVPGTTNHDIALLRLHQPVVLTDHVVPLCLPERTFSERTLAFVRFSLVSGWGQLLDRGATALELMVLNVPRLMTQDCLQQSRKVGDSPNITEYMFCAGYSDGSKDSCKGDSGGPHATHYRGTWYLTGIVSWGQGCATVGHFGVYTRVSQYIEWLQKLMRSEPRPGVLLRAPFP
# T1 sequence (P08709 61-212 limits assumed): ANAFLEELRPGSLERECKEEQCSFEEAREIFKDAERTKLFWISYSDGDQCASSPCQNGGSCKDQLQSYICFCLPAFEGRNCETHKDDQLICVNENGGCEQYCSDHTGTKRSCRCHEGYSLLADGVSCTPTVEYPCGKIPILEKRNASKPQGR
# T1 sequence (P13726 33-295 partner): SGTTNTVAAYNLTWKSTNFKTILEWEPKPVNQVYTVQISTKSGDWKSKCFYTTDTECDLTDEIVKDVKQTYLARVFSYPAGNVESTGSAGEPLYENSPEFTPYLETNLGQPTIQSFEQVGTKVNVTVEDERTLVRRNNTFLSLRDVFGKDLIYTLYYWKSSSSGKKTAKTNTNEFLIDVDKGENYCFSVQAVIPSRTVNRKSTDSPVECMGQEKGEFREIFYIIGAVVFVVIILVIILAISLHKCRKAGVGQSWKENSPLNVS
compound,measurement,setting,value
CN1CCc2cccc(c2)C(Nc2ccc3c(N(C(=O)OC(C)(C)C)C(=O)OC(C)(C)C)nccc3c2)C(=O)N(C)Cc2cc(ccc2S(=O)(=O)C2CC2)NC1=O (centres unmarked),"ring closure, yield after HPLC",[1]; from CNCc1cc(NC(=O)N(C)CCc2cccc(C(Nc3ccc4c(N(C(=O)OC(C)(C)C)C(=O)OC(C)(C)C)nccc4c3)C(=O)O)c2)ccc1S(=O)(=O)C1CC1,61%
CN1Cc2cc(ccc2S(=O)(=O)C2CC2)NC(=O)COCc2cccc(c2)C(Nc2ccc3c(N(C(=O)OC(C)(C)C)C(=O)OC(C)(C)C)ncc(F)c3c2)C1=O (centres unmarked),"ring closure, crude yield",[2],48%
COc1ccc2cc1[C@H](C)CN(C)C(=O)Nc1ccc(S(=O)(=O)C3CC3)c(c1)CN(C)C(=O)C2Nc1ccc2c(N(C(=O)OC(C)(C)C)C(=O)OC(C)(C)C)nccc2c1 (some centres unmarked),"ring closure, yield after HPLC","[1]; from CNCc1cc(NC(=O)N(C)C[C@@H](C)c2cc(C(Nc3ccc4c(N(C(=O)OC(C)(C)C)C(=O)OC(C)(C)C)nccc4c3)C(=O)O)ccc2OC)ccc1S(=O)(=O)C1CC1, 1.11 mM",11%
"CN1Cc2cc(ccc2S(=O)(=O)C2CC2)NC(=O)CCc2cc(ccc2O)[C@@H](Nc2ccc3c(N)ncc(F)c3c2)C1=O (single isomer, unassigned) [Example 16]",Ki,FVIIa,92 nM
"CN1CCc2cccc(c2)C(Nc2ccc3c(N)nccc3c2)C(=O)N(C)Cc2cc(ccc2S(=O)(=O)C2CC2)NC1=O (centres unmarked) [Example 13, trifluoroacetic acid salt]",Ki,FVIIa,6 nM
